Reference: patent publication US20260101887A1, “AN EMULSIFIABLE CONCENTRATE HAVING A LACTONE-BASED SOLVENT SYSTEM” (priority 2022, published 2026)

Columns and labels:
[1] = system: Abutilon theophrasti; test: Rate of penetration measured by Fluorescence Index enhancement (PS II inhibitor Na Bentazone into leaf); assay type: in vivo; parameters: scale not given here; settings: Na B + E + S: 0.64% w/w Na Bentazone, 0.1% emulsifier, 0.9% solvent in CIPAC D water; two 5 μl droplets on leaf, 1 h
Excerpt: PS II inhibitors effectively block the chlorophyll photosynthetic pathways within the leaf, resulting in enhanced fluorescence from the non-adsorbed incident light. The resulting emitted light can be measured at selected time intervals, enabling the determination of the rate of uptake of the PS II inhibitor and thus penetration effect of the selected adjuvant.
The following experiments were on the broadleaf weed Abutilon theophrasti (EPPO code ABUTH) at a Biologische Bundesanstalt, Bundessortenamt und Chemische Industrie (BBCH) growth stage 13 to 14.
The penetration experiments are conducted via the deposition of two droplets (5 μl) of the herbicide/emulsifier/lactone-based solvent formulation onto the leaf surface. The droplets are allowed to stand on the leaf surface for 1 h, after which a fluorescence image of the exposed leaf surface is recorded using the PAM chlorophyll fluorescence imaging system (Imaging PAM, Heinz-Walz GmbH, Germany). The resulting “Total Fluorescence” and “Fluorescence Area” are then quantified via the analysis of the recorded fluorescence image using image analysis software. This enables the calculation of the “Fluorescence Index”:
The “Fluorescence Index” is a therefore a direct measurement of the penetration of the active ingredient into the plant leaf and can thus be used to measure enhanced penetration via the use of selected adjuvants. Identical experiments are conducted on 7 further leaves using the same formulation to account for biological variability and experimental error.

[2] = system: Soya plants; test: Phytotoxicity determination on Soya; assay type: in vivo; settings: 200 L/ha of 1% w/w emulsion (EC 90% w/w solvent, 10% w/w emulsifier); after 14 days; visual scale 0% to 100%
Experimental: Soya plants grown under standard greenhouse conditions in the growth stage 13 were treated with aqueous emulsions in a spray cabin. The resulting plant spray dosage represented an application rate of 200 L/ha of 1% w/w emulsion, corresponding to the application of 2 L/ha of the emulsifiable concentrate. […] The experimental period lasted 14 days, during which time the Soya plants were given optimum watering, nutrients, and light.
An assessment of 1 to 10% phytotoxicity is the limit of acceptable plant damage by farmers.

[3] = solvent in water, visual assessment of undissolved solvent
Experimental: Herein, various amounts of solvent and water were mixed with vigorous shaking in a glass-stoppered graduated cylinder or separating funnel, followed by standing for at least 30 min to enable separation. […] This method can be repeated with various amounts of solvent and water to enable the determination of the water-solubility of the solvent.

SMILES | Fluorescence Index [1] | phytotoxicity [2] [%] | Water solubility [3] [% w/w]
CCCCCC1CCC(=O)O1 (centres unmarked) [Gamma-nonalactone] | 16.44 | 0 | 0.2
CCCCCCC1CCC(=O)O1 (centres unmarked) [Gamma-decalactone] | 14.13 | – | 0.1
CCCCC1CCC(=O)O1 (centres unmarked) [Gamma-octalactone] | 8.80 | – | 0.8
CCCCCCCC1CCCC(=O)O1 (centres unmarked) [Delta-dodecalactone] | 15.21 | – | 0.07
CCCCCCCC1CCC(=O)O1 (centres unmarked) [Gamma-undecalactone] | 11.67 | – | –
CCCC(C)C1CCC(=O)O1 (centres unmarked) [Delta-methyl-gamma- octalactone, Delta-methyl-gamma-octalactone] | – | – | ≤0.2
CCCCC1OC(=O)CC1C (stereo not drawn) [Beta-methyl-gamma-octalactone] | – | – | ≤0.2
CCCCCCCCCC(=O)N(C)C [Dimethyl decanamide, reference compound] | – | 50 | –
CCCCCCCCC1CCC(=O)O1 (centres unmarked) [Gamma-dodecalactone] | – | – | <0.02
CCC1CCC(=O)O1 (centres unmarked) [Gamma-hexalactone] | 6.11 | – | 8
CCCCC1CCCC(=O)O1 (centres unmarked) [Delta-nonalactone] | – | – | 1.2
CCCCCC1CCCC(=O)O1 (centres unmarked) [Delta-decalactone] | 9.66 | – | 0.4
CC1CCC(=O)O1 (centres unmarked) [Gamma-valerolactone] | 4.85 | – | 100
CCCCCCCCC1CCCC(=O)O1 (centres unmarked) [Delta-tridecalactone] | – | – | <0.1
CCCC(C)C1OC(=O)CC1C (stereo not drawn) [Beta, delta-dimethyl- gamma-octalactone, Beta,delta-dimethyl-gamma-octalactone] | – | – | ≤0.2
